In publication PMC9532536 (Acta Pharmaceutica Sinica. B, 2022):
pKd: −log10 of the molar value.

Molecular target: GRP78 (78 kDa glucose-regulated protein) (Homo sapiens, UniProt P11021, K326A)
Assay: microscale thermophoresis
Type: binding

Sequence of GRP78 (78 kDa glucose-regulated protein) (P11021 19-654 K326A): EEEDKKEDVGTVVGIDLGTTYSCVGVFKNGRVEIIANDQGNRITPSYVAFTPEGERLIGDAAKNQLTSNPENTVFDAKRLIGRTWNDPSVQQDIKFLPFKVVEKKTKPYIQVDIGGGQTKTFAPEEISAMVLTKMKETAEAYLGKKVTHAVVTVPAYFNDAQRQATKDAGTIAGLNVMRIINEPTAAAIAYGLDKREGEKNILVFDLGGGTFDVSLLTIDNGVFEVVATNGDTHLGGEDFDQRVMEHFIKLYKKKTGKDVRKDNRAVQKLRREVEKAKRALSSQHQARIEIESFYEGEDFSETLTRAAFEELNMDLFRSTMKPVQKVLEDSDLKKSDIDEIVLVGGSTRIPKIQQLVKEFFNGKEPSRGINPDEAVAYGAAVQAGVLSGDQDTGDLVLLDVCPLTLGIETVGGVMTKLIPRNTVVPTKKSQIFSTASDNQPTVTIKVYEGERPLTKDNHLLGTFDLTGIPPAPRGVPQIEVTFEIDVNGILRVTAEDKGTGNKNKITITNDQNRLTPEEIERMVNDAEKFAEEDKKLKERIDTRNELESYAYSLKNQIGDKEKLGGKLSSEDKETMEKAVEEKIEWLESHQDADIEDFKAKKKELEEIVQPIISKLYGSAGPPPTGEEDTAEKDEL

Compound: CC(=O)OC(C)(C)/C=C/C(=O)[C@](C)(O)[C@H]1[C@H](O)C[C@@]2(C)[C@@H]3CC=C4[C@@H](C[C@H](O)C(=O)C4(C)C)[C@]3(C)C(=O)C[C@]12C [CuB, cucurbitacin B]
- pKd: 4.60
